Test results published in ChEMBL document CHEMBL1155876 (J Med Chem, 2008).

Experiments:
HCT-116 = experiment: Antiproliferative activity against human HCT116 cells
[1] = target: Serine/threonine-protein kinase PLK3 (Homo sapiens) (UniProt Q9H4B4); experiment: Inhibition of Plk3 at assessed as residual enzyme activity at 1 uM
Homo sapiens = species on record: Homo sapiens; experiment: Inhibition of human ALK4 assessed as residual enzyme activity at 0.1 uM
[2] = target: Casein kinase II subunit alpha (Homo sapiens) (UniProt P68400); experiment: Inhibition of human CK2 kinase assessed as residual enzyme activity at 0.1 uM
[3] = target: Macrophage colony-stimulating factor 1 receptor (Homo sapiens) (UniProt P07333); experiment: Inhibition of human Fms kinase assessed as residual enzyme activity at 0.1 uM
[4] = target: Mitogen-activated protein kinase 1 (Homo sapiens) (UniProt P28482); experiment: Inhibition of human MAPK1 kinase assessed as residual enzyme activity at 0.1 uM
[5] = target: Maternal embryonic leucine zipper kinase (Homo sapiens) (UniProt Q14680); experiment: Inhibition of human MELK assessed as residual enzyme activity at 0.1 uM
[6] = target: Serine/threonine-protein kinase PAK 2 (Homo sapiens) (UniProt Q13177); experiment: Inhibition of human PAK2 assessed as residual enzyme activity at 0.1 uM
[7] = target: Platelet-derived growth factor receptor alpha (Homo sapiens) (UniProt P16234); experiment: Inhibition of human PDGFRalpha assessed as residual enzyme activity at 0.1 uM
Platelet-derived growth factor receptor alpha (Homo sapiens), sequence (P16234 whole entry): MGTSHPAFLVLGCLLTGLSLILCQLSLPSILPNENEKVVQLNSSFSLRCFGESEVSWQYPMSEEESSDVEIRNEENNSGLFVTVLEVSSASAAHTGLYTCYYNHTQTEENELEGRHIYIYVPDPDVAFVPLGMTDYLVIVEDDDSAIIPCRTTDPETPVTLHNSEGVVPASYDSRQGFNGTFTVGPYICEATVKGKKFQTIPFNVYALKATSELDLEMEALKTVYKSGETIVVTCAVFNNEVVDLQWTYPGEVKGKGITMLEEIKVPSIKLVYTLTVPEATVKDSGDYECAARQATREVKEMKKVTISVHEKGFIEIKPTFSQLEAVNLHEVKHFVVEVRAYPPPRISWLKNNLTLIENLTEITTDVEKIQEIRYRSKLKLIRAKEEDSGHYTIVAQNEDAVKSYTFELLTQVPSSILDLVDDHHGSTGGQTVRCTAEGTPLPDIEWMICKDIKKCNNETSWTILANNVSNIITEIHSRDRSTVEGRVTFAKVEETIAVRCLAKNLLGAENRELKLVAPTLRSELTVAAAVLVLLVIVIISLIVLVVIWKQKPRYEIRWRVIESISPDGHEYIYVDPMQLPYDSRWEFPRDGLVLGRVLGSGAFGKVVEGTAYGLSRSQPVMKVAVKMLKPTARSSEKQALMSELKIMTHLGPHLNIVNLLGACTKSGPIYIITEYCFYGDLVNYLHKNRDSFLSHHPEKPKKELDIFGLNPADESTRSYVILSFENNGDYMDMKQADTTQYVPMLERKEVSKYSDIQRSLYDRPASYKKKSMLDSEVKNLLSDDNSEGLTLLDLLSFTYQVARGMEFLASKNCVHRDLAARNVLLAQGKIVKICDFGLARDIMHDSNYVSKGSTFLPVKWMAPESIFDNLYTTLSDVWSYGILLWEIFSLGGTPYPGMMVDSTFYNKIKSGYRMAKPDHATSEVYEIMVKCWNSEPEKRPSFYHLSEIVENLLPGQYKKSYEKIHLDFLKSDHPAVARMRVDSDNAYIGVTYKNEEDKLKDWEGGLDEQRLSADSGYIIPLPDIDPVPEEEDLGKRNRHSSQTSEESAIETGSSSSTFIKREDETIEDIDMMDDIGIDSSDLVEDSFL

Maternal embryonic leucine zipper kinase (Homo sapiens), sequence (Q14680 whole entry, looked up): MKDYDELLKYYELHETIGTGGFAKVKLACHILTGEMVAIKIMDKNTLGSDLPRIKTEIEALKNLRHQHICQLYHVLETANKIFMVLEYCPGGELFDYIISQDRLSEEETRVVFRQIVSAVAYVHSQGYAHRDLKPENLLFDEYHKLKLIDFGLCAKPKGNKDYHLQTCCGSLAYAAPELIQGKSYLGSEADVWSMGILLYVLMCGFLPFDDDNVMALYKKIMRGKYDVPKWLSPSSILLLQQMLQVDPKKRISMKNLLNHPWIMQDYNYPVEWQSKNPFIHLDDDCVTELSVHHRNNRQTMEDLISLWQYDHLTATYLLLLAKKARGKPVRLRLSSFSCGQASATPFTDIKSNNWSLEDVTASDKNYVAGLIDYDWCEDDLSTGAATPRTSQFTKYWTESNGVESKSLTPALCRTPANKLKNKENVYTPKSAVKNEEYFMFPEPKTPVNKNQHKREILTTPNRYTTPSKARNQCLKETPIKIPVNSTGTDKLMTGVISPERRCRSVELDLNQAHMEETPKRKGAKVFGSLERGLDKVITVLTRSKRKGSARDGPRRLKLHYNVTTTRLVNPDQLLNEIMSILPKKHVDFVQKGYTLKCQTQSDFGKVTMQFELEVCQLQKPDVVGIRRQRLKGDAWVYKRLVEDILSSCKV
Mitogen-activated protein kinase 1 (Homo sapiens), sequence (P28482 whole entry): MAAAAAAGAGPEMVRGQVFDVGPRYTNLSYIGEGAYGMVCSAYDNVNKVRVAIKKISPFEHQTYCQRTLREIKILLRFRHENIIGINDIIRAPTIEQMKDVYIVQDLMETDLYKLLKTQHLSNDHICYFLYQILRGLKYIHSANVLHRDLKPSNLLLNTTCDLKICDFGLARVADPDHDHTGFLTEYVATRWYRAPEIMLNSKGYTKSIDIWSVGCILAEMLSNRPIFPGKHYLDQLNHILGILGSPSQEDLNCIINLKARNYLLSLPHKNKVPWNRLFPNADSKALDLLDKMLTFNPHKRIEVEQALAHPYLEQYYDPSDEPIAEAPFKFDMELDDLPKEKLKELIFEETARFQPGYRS
Macrophage colony-stimulating factor 1 receptor (Homo sapiens), sequence (P07333 whole entry): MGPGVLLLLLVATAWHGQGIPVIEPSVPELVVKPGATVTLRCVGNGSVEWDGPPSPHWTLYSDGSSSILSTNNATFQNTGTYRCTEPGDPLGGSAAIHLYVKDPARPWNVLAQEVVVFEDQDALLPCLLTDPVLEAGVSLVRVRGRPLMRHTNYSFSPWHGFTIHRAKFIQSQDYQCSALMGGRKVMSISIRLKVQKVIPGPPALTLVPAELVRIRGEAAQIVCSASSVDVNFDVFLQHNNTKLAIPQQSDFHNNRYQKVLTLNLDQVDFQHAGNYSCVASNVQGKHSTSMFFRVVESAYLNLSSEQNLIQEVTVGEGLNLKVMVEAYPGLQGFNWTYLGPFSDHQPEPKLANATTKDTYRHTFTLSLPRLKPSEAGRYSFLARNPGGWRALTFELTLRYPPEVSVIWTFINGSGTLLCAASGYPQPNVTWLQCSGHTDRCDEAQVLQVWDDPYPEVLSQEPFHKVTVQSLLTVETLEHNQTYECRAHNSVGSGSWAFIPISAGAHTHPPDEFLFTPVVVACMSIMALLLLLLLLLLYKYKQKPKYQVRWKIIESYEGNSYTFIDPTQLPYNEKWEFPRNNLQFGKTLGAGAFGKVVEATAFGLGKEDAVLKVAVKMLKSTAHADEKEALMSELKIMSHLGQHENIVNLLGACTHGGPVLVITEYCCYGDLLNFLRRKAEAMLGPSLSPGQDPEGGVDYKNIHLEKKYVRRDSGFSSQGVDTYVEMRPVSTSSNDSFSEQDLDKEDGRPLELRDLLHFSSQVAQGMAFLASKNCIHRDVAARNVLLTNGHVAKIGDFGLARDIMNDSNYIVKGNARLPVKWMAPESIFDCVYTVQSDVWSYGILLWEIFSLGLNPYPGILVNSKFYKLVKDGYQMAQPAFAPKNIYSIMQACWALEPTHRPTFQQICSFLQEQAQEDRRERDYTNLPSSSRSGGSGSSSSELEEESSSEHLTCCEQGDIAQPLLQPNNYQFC
Serine/threonine-protein kinase PAK 2 (Homo sapiens), sequence (Q13177 whole entry): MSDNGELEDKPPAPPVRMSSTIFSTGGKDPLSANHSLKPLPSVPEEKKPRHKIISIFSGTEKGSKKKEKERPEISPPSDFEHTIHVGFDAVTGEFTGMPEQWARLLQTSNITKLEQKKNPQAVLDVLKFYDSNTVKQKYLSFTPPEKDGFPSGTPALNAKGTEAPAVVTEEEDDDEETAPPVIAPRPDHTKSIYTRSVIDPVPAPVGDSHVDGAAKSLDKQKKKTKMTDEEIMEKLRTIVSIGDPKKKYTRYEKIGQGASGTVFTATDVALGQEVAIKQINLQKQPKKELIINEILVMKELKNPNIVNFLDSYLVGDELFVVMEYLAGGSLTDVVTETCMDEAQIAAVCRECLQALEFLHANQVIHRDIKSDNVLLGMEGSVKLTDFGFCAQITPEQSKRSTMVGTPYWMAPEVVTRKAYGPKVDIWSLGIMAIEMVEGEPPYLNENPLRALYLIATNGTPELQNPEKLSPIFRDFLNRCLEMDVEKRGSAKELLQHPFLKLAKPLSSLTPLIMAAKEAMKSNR
Casein kinase II subunit alpha (Homo sapiens), sequence (P68400 whole entry, looked up): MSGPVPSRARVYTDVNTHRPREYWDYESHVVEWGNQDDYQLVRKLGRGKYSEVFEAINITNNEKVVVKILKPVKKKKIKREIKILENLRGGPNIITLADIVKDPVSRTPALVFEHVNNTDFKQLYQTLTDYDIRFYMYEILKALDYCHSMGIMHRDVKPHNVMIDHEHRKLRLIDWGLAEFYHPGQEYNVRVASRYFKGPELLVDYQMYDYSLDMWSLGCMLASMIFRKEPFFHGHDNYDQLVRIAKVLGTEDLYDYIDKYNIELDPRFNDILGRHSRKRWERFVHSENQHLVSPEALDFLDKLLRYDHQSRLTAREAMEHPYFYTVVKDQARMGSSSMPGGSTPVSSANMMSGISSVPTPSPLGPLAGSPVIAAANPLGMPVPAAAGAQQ
Serine/threonine-protein kinase PLK3 (Homo sapiens), sequence (Q9H4B4 whole entry, looked up): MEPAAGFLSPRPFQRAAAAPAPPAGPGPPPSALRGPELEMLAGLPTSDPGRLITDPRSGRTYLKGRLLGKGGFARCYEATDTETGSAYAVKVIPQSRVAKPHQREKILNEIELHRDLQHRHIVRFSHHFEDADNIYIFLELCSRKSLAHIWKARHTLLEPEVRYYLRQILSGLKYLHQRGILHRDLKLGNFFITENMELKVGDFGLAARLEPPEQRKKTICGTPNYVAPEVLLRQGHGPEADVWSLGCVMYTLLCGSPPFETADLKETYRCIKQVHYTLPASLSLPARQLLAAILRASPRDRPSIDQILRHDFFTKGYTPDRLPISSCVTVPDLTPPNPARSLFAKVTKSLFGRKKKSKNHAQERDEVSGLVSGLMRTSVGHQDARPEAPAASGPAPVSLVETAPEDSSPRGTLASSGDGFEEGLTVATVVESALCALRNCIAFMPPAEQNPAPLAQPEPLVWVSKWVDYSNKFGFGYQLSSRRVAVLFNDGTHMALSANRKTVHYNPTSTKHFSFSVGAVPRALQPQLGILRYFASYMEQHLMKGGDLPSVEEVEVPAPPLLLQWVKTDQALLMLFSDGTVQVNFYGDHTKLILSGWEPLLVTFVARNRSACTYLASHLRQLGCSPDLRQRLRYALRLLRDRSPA

IC50 (HCT-116): 70 nM
Activity [1]: 103%
Activity (Homo sapiens): 113%
Activity [2]: 104%
Activity [3]: 2%
Activity [4]: 112%
Activity [5]: 53%
Activity [6]: 103%
Activity [7]: 91%
SMILES: CCN1C(=O)C(C)(C)c2cc3[nH]c4c(c3cc21)CCCc1c(C)n[nH]c1-4
